Paper PMC7179259, “Safety, Tolerability, Pharmacokinetics, and Antimalarial Activity of the Novel Plasmodium Phosphatidylinositol 4-Kinase Inhibitor MMV390048 in Healthy Volunteers” (Antimicrobial Agents and Chemotherapy, 2020)
Marks after values point to notes of the source that are not given here.

Test system: healthy volunteers
Experiment: First-in-human single-ascending-dose study: safety and tolerability
Format: in vivo
Conditions: for lowest observed neutrophil count: 24 h after 40 mg
Description: The first-in-human study was conducted at the University of Cape Town Clinical Research Centre (Cape Town, South Africa) between 30 April 2014 and 2 February 2015. This was a phase 1, adaptive, single-center, double-blind, randomized, placebo-controlled, ascending-dose study. The study was planned in two parts, with a single ascending dose and then a multiple ascending dose. However, the multiple-ascending-dose part was not executed due to the high variability in pharmacokinetic profiles observed during the single-ascending-dose part (see Results).
(i) First-in-human study. The study was conducted in five fasted cohorts (5, 20, 40, 80, and 120 mg) and one fed 40-mg cohort. The initial dose of 5 mg was chosen in agreement with guidelines on dose selection for first-in-human clinical studies ([15], [16]) and was based on the no-observed-adverse-event level for the most sensitive species observed in preclinical toxicology studies. Doses administered to subsequent cohorts were determined a priori after consideration of interim human pharmacokinetic and safety data.
MMV390048 and placebo were each supplied as a powder for suspension packaged in white opaque high-density polyethylene bottles, with a volume capacity of 100 ml when reconstituted with deionized water (Almac Pharma Services, United Kingdom). The powder contained the following excipients: Avicel CL611, disodium edetate, sodium citrate dihydrate, methyl paraben, sucralose, povidone, and orange flavor. The reconstituted formulation consisted of the active ingredient MMV390048 in an aqueous suspension of 5 mg ml^−1.
All subjects in the fasted cohorts were dosed on day 1 after a fasting period of ≥8 h. Water was prohibited from 2 h predose and then allowed ad libitum from 2 h postdose, and standardized meals were provided from 4 h postdose. In the first two cohorts (5 and 20 mg), a sentinel subcohort (n = 2) was dosed on day 1. The safety review team reviewed safety and pharmacokinetic data of these subjects up to day 3 before dosing the rest of these two cohorts and up to day 19 for all cohorts before dose escalation. […] Selected subjects from the fasted cohorts then received 40 mg in a fed state to evaluate the effect of food on the tolerability and pharmacokinetic profile of MMV390048. […] The predose breakfast was in line with FDA guidelines ([13]) and was composed of approximately 800 to 1,000 calories (cal), with 150, 250, and 500 to 600 cal from protein, carbohydrate, and fat, respectively.
Safety endpoints were the incidence, severity, and relationship to the investigational product (and inoculum for the IBSM study) of observed and self-reported adverse events (AEs), and changes from baseline in physical examination, vital signs, standard electrocardiograms (ECGs), continuous ECGs (first-in-human study only), and laboratory evaluation (hematology, coagulation parameters, hemolysis panel, clinical chemistry, and urinalysis) findings. […] AE severity was evaluated according to the Common Terminology Criteria for Adverse Events version 4.03 ([18]) and the World Health Organization recommendations for grading acute and subacute toxic effects ([19]).

[1] = first-in-human study, 5 mg (n = 6)
[2] = first-in-human study, 20 mg (n = 6)
[3] = first-in-human study, 40 mg (n = 6)
[4] = first-in-human study, 40 mg (n = 6), AE was neutropenia
[5] = first-in-human study, 40 mg FED (n = 6)
[6] = first-in-human study, 40 mg FED (n = 6), AE was neutropenia
[7] = first-in-human study, 80 mg (n = 6)
[8] = first-in-human study, 120 mg (n = 6)
[9] = first-in-human study, 120 mg (n = 6), SAE was generalized myoclonus

CS(=O)(=O)c1ccc(-c2cnc(N)c(-c3ccc(C(F)(F)F)nc3)c2)cc1 [MMV390048]
serious AE (SAE) reported (approximately 24 h after 120 mg, subject with undisclosed history of epilepsy): generalized myoclonus
No. (%) of subjects with adverse events: All AEs [1]: 4 (67)
No. (%) of subjects with adverse events: All AEs, Treatment related [1]: 0
No. (%) of subjects with adverse events: Grade 2 AEs [1]: 0
No. (%) of subjects with adverse events: Grade 2 AEs, Treatment related [1]: 0
No. (%) of subjects with adverse events: Grade 3 AEs [1]: 0
No. (%) of subjects with adverse events: SAEs [1]: 0
No. of adverse events: All AEs [1]: 11
No. of adverse events: All AEs, Treatment related [1]: 0
No. of adverse events: Grade 2 AEs [1]: 0
No. of adverse events: Grade 2 AEs, Treatment related [1]: 0
No. of adverse events: Grade 3 AEs [1]: 0
No. of adverse events: SAEs [1]: 0
No. (%) of subjects with adverse events: All AEs [2]: 5 (83)
No. (%) of subjects with adverse events: All AEs, Treatment related [2]: 3 (50)
No. (%) of subjects with adverse events: Grade 2 AEs [2]: 4 (67)
No. (%) of subjects with adverse events: Grade 2 AEs, Treatment related [2]: 1 (17)
No. (%) of subjects with adverse events: Grade 3 AEs [2]: 0
No. (%) of subjects with adverse events: SAEs [2]: 0
No. of adverse events: All AEs [2]: 12
No. of adverse events: All AEs, Treatment related [2]: 3
No. of adverse events: Grade 2 AEs [2]: 5
No. of adverse events: Grade 2 AEs, Treatment related [2]: 1
No. of adverse events: Grade 3 AEs [2]: 0
No. of adverse events: SAEs [2]: 0
No. (%) of subjects with adverse events: All AEs [3]: 5 (83)
No. (%) of subjects with adverse events: All AEs, Treatment related [3]: 3 (50)
No. (%) of subjects with adverse events: Grade 2 AEs [3]: 3 (50)
No. (%) of subjects with adverse events: Grade 2 AEs, Treatment related [3]: 1 (17)
No. (%) of subjects with adverse events: SAEs [3]: 0
No. of adverse events: All AEs [3]: 19
No. of adverse events: All AEs, Treatment related [3]: 3
No. of adverse events: Grade 2 AEs [3]: 4
No. of adverse events: Grade 2 AEs, Treatment related [3]: 1
No. of adverse events: SAEs [3]: 0
No. (%) of subjects with adverse events: Grade 3 AEs [4]: 1 (17)^c
No. of adverse events: Grade 3 AEs [4]: 1^c
No. (%) of subjects with adverse events: All AEs [5]: 6 (100)
No. (%) of subjects with adverse events: All AEs, Treatment related [5]: 2 (33)
No. (%) of subjects with adverse events: Grade 2 AEs [5]: 2 (33)
No. (%) of subjects with adverse events: Grade 2 AEs, Treatment related [5]: 1 (17)
No. (%) of subjects with adverse events: SAEs [5]: 0
No. of adverse events: All AEs [5]: 22
No. of adverse events: All AEs, Treatment related [5]: 2
No. of adverse events: Grade 2 AEs [5]: 2
No. of adverse events: Grade 2 AEs, Treatment related [5]: 1
No. of adverse events: SAEs [5]: 0
No. (%) of subjects with adverse events: Grade 3 AEs [6]: 1 (17)^c
No. of adverse events: Grade 3 AEs [6]: 1^c
No. (%) of subjects with adverse events: All AEs [7]: 6 (100)
No. (%) of subjects with adverse events: All AEs, Treatment related [7]: 2 (33)
No. (%) of subjects with adverse events: Grade 2 AEs [7]: 5 (83)
No. (%) of subjects with adverse events: Grade 2 AEs, Treatment related [7]: 0
No. (%) of subjects with adverse events: Grade 3 AEs [7]: 0
No. (%) of subjects with adverse events: SAEs [7]: 0
No. of adverse events: All AEs [7]: 20
No. of adverse events: All AEs, Treatment related [7]: 3
No. of adverse events: Grade 2 AEs [7]: 6
No. of adverse events: Grade 2 AEs, Treatment related [7]: 0
No. of adverse events: Grade 3 AEs [7]: 0
No. of adverse events: SAEs [7]: 0
No. (%) of subjects with adverse events: All AEs [8]: 6 (100)
No. (%) of subjects with adverse events: All AEs, Treatment related [8]: 1 (17)
No. (%) of subjects with adverse events: Grade 2 AEs [8]: 2 (33)
No. (%) of subjects with adverse events: Grade 2 AEs, Treatment related [8]: 1 (17)
No. (%) of subjects with adverse events: Grade 3 AEs [8]: 0
No. of adverse events: All AEs [8]: 11
No. of adverse events: All AEs, Treatment related [8]: 1
No. of adverse events: Grade 2 AEs [8]: 3
No. of adverse events: Grade 2 AEs, Treatment related [8]: 1
No. of adverse events: Grade 3 AEs [8]: 0
No. (%) of subjects with adverse events: SAEs [9]: 1 (17)^e
No. of adverse events: SAEs [9]: 1^e
trends in inhibin B, FSH, LH, or testosterone levels (first-in-human study, across dose groups): No trends
adverse events considered potentially related to MMV390048 (first-in-human study, all MMV390048 cohorts): Twelve
QT prolongation (QTcF, >450 ms) (first-in-human study, any subject): No QT prolongation
decrease in blood pressure (to) (first-in-human study, mild related AE, one subject): 87/52
diarrhea considered related to MMV390048, cases (first-in-human study, moderate severity, in 2 subjects): 2
duration of moderate papular urticaria episode (one subject, 20 mg): 20 days
onset of moderate papular urticaria after dosing (one subject, 20 mg): 14 days
time for neutrophil count to return to >1.5 × 10^9 liter^−1 (one subject, 40 mg fasted): 4 days
time for neutrophil count to return to >1.5 × 10^9 liter^−1 (one subject, 40 mg fed): 13 days
PR prolongation on ECG, maximum (one subject, 24 h after 20 mg, PR 200.3 ms on admission): 285 ms
lowest observed neutrophil count (one subject, fasted state (predose 1.65)): 7.7e+08 L⁻¹
lowest observed neutrophil count (one subject, fed state (predose 1.90)): 9.7e+08 L⁻¹
tolerability (single oral dose up to 120 mg, healthy volunteers): generally well tolerated
